The values that follow come from publication PMC9019904, “AD Informer Set: Chemical tools to facilitate Alzheimer's disease drug discovery” (Alzheimer's & Dementia : Translational Research & Clinical …, 2022).

A word on the solubility (kinetic): it is solubility judged after dilution from a stock solution rather than from solid.

Converted amounts (≈) assume the structure as drawn.

The subject of data set [1] is HMC3 (human microglia) cell line. Kind of data set: pHrodo-myelin phagocytosis/cell viability high content imaging assay: phagocytosis signal. The format is cell-based. Summed up:
(§1)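 Cells receive pHrodo-myelin, then are imaged at high content approximately 22 hours later. Phagocytosis signal and viability are captured in the same run. Three measurements are extracted per well.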

Data set [2] can be described thus: Kinetic solubility in aqueous buffer pH 7.4 by total chemiluminescent nitrogen determination (Analiza). Particulars: aqueous buffer, pH 7.4, aqueous buffer, kinetic from dmso stock.
The test system of data set [3] is BV2 (mouse microglia) cell line. Kind of data set: pHrodo-myelin phagocytosis/cell viability high content imaging assay: phagocytosis signal. The format is cell-based. Summed up: as §1
For data set [4] the test system is unchanged. In words: pHrodo-myelin phagocytosis/cell viability high content imaging assay: viability (cell count, nuclear area, nuclear intensity). Summed up:
(§2)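 Viability was read by high-content imaging as cell count per well and nuclear intensity per cell, in murine BV2 and human HMC3 microglial lines. Cells received a single 10 μM compound dose for 48 h, including 20 h with pHrodo-myelin. Duplicate means are expressed as % of untreated control.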

Data set [5] deals with HMC3 (human microglia) cell line. The description is as above. Summed up:
as §2

Take `c1ccc(-c2nn3c(c2-c2ccnc4cc(OCCN5CCOCC5)ccc24)CCC3)nc1` [LY2109761]: the “Inhibition of human microglial phagocytosis at 10 μM (<70% control)” value in data set [1] (HMC3, 10 μM) is reported as “Y (The compound was found to inhibit phagocytosis (response threshold: <70% control) when human immortalized microglial cells were dosed at 10 μM (Y: yes))”. Besides, the solubility (kinetic) in data set [2] came out at 114 µM (≈ 50.6 µg/mL).

Consider `C[C@H]1Oc2cc(cnc2N)-c2c(nn(C)c2C#N)CN(C)C(=O)c2ccc(F)cc21` [Lorlatinib], for which, in data set [1] (HMC3, 10 μM), the “Inhibition of human microglial phagocytosis at 10 μM (<70% control)” value is “Y (The compound was found to inhibit phagocytosis (response threshold: <70% control) when human immortalized microglial cells were dosed at 10 μM (Y: yes))”. Moreover, the “Stimulation of mouse microglial phagocytosis at 10 μM (>150% control)” value in data set [3] (BV2, 10 μM) was “Y (The compound was found to stimulate phagocytosis (response threshold: >150% control) when murine immortalized microglial cells were dosed at 10 μM (Y: yes))”. In addition, the kinetic solubility in data set [2] amounted to 172 µM (≈ 69.9 µg/mL).

As for `CNc1nc(C)nc(N[C@H]2CCC[C@@H](C(=O)NCc3ccc(C#N)cc3C(F)(F)F)C2)n1` [GSK2256294A], the “Inhibition of human microglial phagocytosis at 10 μM (<70% control)” value in data set [1] (HMC3, 10 μM) was “Y (The compound was found to inhibit phagocytosis (response threshold: <70% control) when human immortalized microglial cells were dosed at 10 μM (Y: yes))”. In data set [2], the kinetic solubility amounted to 148 µM (≈ 66 µg/mL).

As for `Clc1ccc(N/N=C(\c2ccccc2)c2ccccn2)nc1` [JIB-04], the “Stimulation of mouse microglial phagocytosis at 10 μM (>150% control)” value in data set [3] (10 μM, BV2) is on record as “Y (The compound was found to stimulate phagocytosis (response threshold: >150% control) when murine immortalized microglial cells were dosed at 10 μM (Y: yes))”. The “Mouse microglial cytotoxicity at 10 μM (<70% control)” value in data set [4] (10 μM, BV2) is reported as “Y (The compound was found to be cytotoxic (cell count threshold: <70% control) when murine immortalized microglial cells were dosed at 10 μM (Y: yes))”. In data set [2], this molecule displayed a solubility (kinetic) of 24.3 µM (≈ 7.5 µg/mL).

`C[C@@H](Oc1cc(-c2cnn(C3CCNCC3)c2)cnc1N)c1c(Cl)ccc(F)c1Cl` [Crizotinib]: the “Inhibition of human microglial phagocytosis at 10 μM (<70% control)” value in data set [1] (HMC3, 10 μM) is “Y (The compound was found to inhibit phagocytosis (response threshold: <70% control) when human immortalized microglial cells were dosed at 10 μM (Y: yes))”. For the same molecule, the “Inhibition of mouse microglial phagocytosis at 10 μM (<70% control)” value in data set [3] (BV2, 10 μM) is reported as “Y (The compound was found to inhibit phagocytosis (response threshold: <70% control) when murine immortalized microglial cells were dosed at 10 μM (Y: yes))”. In data set [2], this molecule registered a kinetic solubility of 160 µM (≈ 72.1 µg/mL).

As for `O=C(CCl)c1ccccc1Nc1cccc(C(F)(F)F)c1` [TED-347], in data set [1] (HMC3, 10 μM), the “Inhibition of human microglial phagocytosis at 10 μM (<70% control)” value is on record as “Y (The compound was found to inhibit phagocytosis (response threshold: <70% control) when human immortalized microglial cells were dosed at 10 μM (Y: yes))”. For the same molecule, the “Stimulation of mouse microglial phagocytosis at 10 μM (>150% control)” value in data set [3] (BV2, 10 μM) is “Y (The compound was found to stimulate phagocytosis (response threshold: >150% control) when murine immortalized microglial cells were dosed at 10 μM (Y: yes))”. The molecule also yielded a kinetic solubility in data set [2] of 40.8 µM (≈ 12.8 µg/mL).

For the molecule `CCN(CC)c1ccc(/C=N/NC(=O)c2ccc(O)cc2)cc1` [DY131], the “Inhibition of human microglial phagocytosis at 10 μM (<70% control)” value in data set [1] (HMC3, 10 μM) is given as “Y (The compound was found to inhibit phagocytosis (response threshold: <70% control) when human immortalized microglial cells were dosed at 10 μM (Y: yes))”. Besides, the “Mouse microglial cytotoxicity at 10 μM (<70% control)” value in data set [4] (BV2, 10 μM) is on record as “Y (The compound was found to be cytotoxic (cell count threshold: <70% control) when murine immortalized microglial cells were dosed at 10 μM (Y: yes))”. The solubility (kinetic) in data set [2] was 4.5 µM (≈ 1.4 µg/mL).

`Oc1cc(CNC(=S)/C=C/c2cc(O)c(O)c(Br)c2)cc(O)c1O` [NT157]: the “Stimulation of mouse microglial phagocytosis at 10 μM (>150% control)” value in data set [3] (10 μM, BV2) is on record as “Y (The compound was found to stimulate phagocytosis (response threshold: >150% control) when murine immortalized microglial cells were dosed at 10 μM (Y: yes))”. For the same molecule, the “Human microglial cytotoxicity at 10 μM (<70% control)” value in data set [5] (10 μM, HMC3) was “Y (The compound was found to be cytotoxic (cell count threshold: <70% control) when human immortalized microglial cells were dosed at 10 μM (Y: yes))”. The “Mouse microglial cytotoxicity at 10 μM (<70% control)” value in data set [4] (10 μM, BV2) was “Y (The compound was found to be cytotoxic (cell count threshold: <70% control) when murine immortalized microglial cells were dosed at 10 μM (Y: yes))”. Besides, in data set [2], the solubility (kinetic) was found to be 79.7 µM (≈ 32.9 µg/mL).

Consider `C[C@H](NC(=O)c1sccc1OCc1ccc(Cl)cc1)c1ccccc1` [AS1949490], for which the “Inhibition of human microglial phagocytosis at 10 μM (<70% control)” value in data set [1] (10 μM, HMC3) was “Y (The compound was found to inhibit phagocytosis (response threshold: <70% control) when human immortalized microglial cells were dosed at 10 μM (Y: yes))”. This molecule also registered a solubility (kinetic) in data set [2] of less than 2.1 µM.

For `CCCC[C@@H](C=O)NC(=O)[C@H](CC(C)C)NC(=O)OCc1ccccc1` [Calpeptin], the “Inhibition of human microglial phagocytosis at 10 μM (<70% control)” value in data set [1] (HMC3, 10 μM) is “Y (The compound was found to inhibit phagocytosis (response threshold: <70% control) when human immortalized microglial cells were dosed at 10 μM (Y: yes))”. Also, the “Stimulation of mouse microglial phagocytosis at 10 μM (>150% control)” value in data set [3] (BV2, 10 μM) is given as “Y (The compound was found to stimulate phagocytosis (response threshold: >150% control) when murine immortalized microglial cells were dosed at 10 μM (Y: yes))”. This molecule also returned a solubility (kinetic) in data set [2] of 170 µM (≈ 61.4 µg/mL).

For `CN(C)CCCn1c(N)c(-c2nc3ccccc3[nH]2)c2nc3ccccc3nc21` [INI-43], in data set [1] (10 μM, HMC3), the “Inhibition of human microglial phagocytosis at 10 μM (<70% control)” value was “Y (The compound was found to inhibit phagocytosis (response threshold: <70% control) when human immortalized microglial cells were dosed at 10 μM (Y: yes))”. In data set [2], this molecule showed a kinetic solubility of 5.9 µM (≈ 2.27 µg/mL).

On to `CCS(=O)(=O)N1CCN(c2ccc(Nc3ncc(C(N)=O)c(NC4CC4)n3)cc2)CC1` [Cerdulatinib], for which the “Inhibition of mouse microglial phagocytosis at 10 μM (<70% control)” value in data set [3] (BV2, 10 μM) is reported as “Y (The compound was found to inhibit phagocytosis (response threshold: <70% control) when murine immortalized microglial cells were dosed at 10 μM (Y: yes))”. In addition, the “Human microglial cytotoxicity at 10 μM (<70% control)” value in data set [5] (HMC3, 10 μM, cell count <70% control) was “Y (The compound was found to be cytotoxic (cell count threshold: <70% control) when human immortalized microglial cells were dosed at 10 μM (Y: yes))”. Further, the “Mouse microglial cytotoxicity at 10 μM (<70% control)” value in data set [4] (BV2, 10 μM, cell count <70% control) is “Y (The compound was found to be cytotoxic (cell count threshold: <70% control) when murine immortalized microglial cells were dosed at 10 μM (Y: yes))”. In data set [2], this molecule showed a kinetic solubility of 1.8 µM (≈ 0.802 µg/mL).

Regarding `OC(c1cc(C23CC4CC(CC(C4)C2)C3)nc2c(Cl)cc(Cl)cc12)C1CCCCN1` (stereo not drawn) [NSC305787], in data set [1] (HMC3, 10 μM), the “Inhibition of human microglial phagocytosis at 10 μM (<70% control)” value was “Y (The compound was found to inhibit phagocytosis (response threshold: <70% control) when human immortalized microglial cells were dosed at 10 μM (Y: yes))”. Besides, the “Mouse microglial cytotoxicity at 10 μM (<70% control)” value in data set [4] (BV2, 10 μM) is “Y (The compound was found to be cytotoxic (cell count threshold: <70% control) when murine immortalized microglial cells were dosed at 10 μM (Y: yes))”. Further, the solubility (kinetic) in data set [2] is less than 1.1 µM.

Take `O=C(NNc1nc2cc(F)ccc2n2cccc12)c1cnccn1` [SC144]: in data set [3] (10 μM, BV2), the “Stimulation of mouse microglial phagocytosis at 10 μM (>150% control)” value is “Y (The compound was found to stimulate phagocytosis (response threshold: >150% control) when murine immortalized microglial cells were dosed at 10 μM (Y: yes))”. Also, the “Mouse microglial cytotoxicity at 10 μM (<70% control)” value in data set [4] (10 μM, BV2) is “Y (The compound was found to be cytotoxic (cell count threshold: <70% control) when murine immortalized microglial cells were dosed at 10 μM (Y: yes))”. In data set [2], the kinetic solubility was 2.7 µM (≈ 0.87 µg/mL).

For `CC(Nc1nc(N2CCCC2)nc2ccccc12)c1ccccc1` (stereo not drawn) [Importazole], in data set [1] (10 μM, HMC3), the “Inhibition of human microglial phagocytosis at 10 μM (<70% control)” value is given as “Y (The compound was found to inhibit phagocytosis (response threshold: <70% control) when human immortalized microglial cells were dosed at 10 μM (Y: yes))”. In addition, in data set [5] (10 μM, HMC3), the “Human microglial cytotoxicity at 10 μM (<70% control)” value is “Y (The compound was found to be cytotoxic (cell count threshold: <70% control) when human immortalized microglial cells were dosed at 10 μM (Y: yes))”. Further, the “Mouse microglial cytotoxicity at 10 μM (<70% control)” value in data set [4] (10 μM, BV2) is on record as “Y (The compound was found to be cytotoxic (cell count threshold: <70% control) when murine immortalized microglial cells were dosed at 10 μM (Y: yes))”. Besides, the kinetic solubility in data set [2] came out at 42.1 µM (≈ 13.4 µg/mL).

Turning to `N#Cc1ccc(COC[C@H]2O[C@@H](n3c(NCc4ccc(Cl)c(Cl)c4)nc4c(N)ncnc43)[C@H](O)[C@@H]2O)cc1` [VER-155008], the “Stimulation of mouse microglial phagocytosis at 10 μM (>150% control)” value in data set [3] (10 μM, BV2) is reported as “Y (The compound was found to stimulate phagocytosis (response threshold: >150% control) when murine immortalized microglial cells were dosed at 10 μM (Y: yes))”. In data set [4] (10 μM, BV2), the “Mouse microglial cytotoxicity at 10 μM (<70% control)” value is reported as “Y (The compound was found to be cytotoxic (cell count threshold: <70% control) when murine immortalized microglial cells were dosed at 10 μM (Y: yes))”. The solubility (kinetic) in data set [2] came to 14.3 µM (≈ 7.96 µg/mL).

With `CCn1cc(C(=O)O)c(=O)c2c(N)c(F)c(NC3CCCCC3)cc21` [AS1842856], in data set [1] (10 μM, HMC3), the “Inhibition of human microglial phagocytosis at 10 μM (<70% control)” value is listed as “Y (The compound was found to inhibit phagocytosis (response threshold: <70% control) when human immortalized microglial cells were dosed at 10 μM (Y: yes))”. In addition, the “Human microglial cytotoxicity at 10 μM (<70% control)” value in data set [5] (10 μM, HMC3) is given as “Y (The compound was found to be cytotoxic (cell count threshold: <70% control) when human immortalized microglial cells were dosed at 10 μM (Y: yes))”. In addition, in data set [2], the kinetic solubility came to 6.5 µM (≈ 2.26 µg/mL).

`CC(C)(C)c1cnc(CSc2cnc(NC(=O)C3CCNCC3)s2)o1` [SNS-032]: in data set [1] (HMC3, 10 μM), the “Stimulation of human microglial phagocytosis at 10 μM (>150% control)” value is on record as “Y (The compound was found to stimulate phagocytosis (response threshold: >150% control) when human immortalized microglial cells were dosed at 10 μM (Y: yes))”. For the same molecule, in data set [5] (HMC3, 10 μM), the “Human microglial cytotoxicity at 10 μM (<70% control)” value was “Y (The compound was found to be cytotoxic (cell count threshold: <70% control) when human immortalized microglial cells were dosed at 10 μM (Y: yes))”. In data set [4] (BV2, 10 μM), the “Mouse microglial cytotoxicity at 10 μM (<70% control)” value is “Y (The compound was found to be cytotoxic (cell count threshold: <70% control) when murine immortalized microglial cells were dosed at 10 μM (Y: yes))”. The kinetic solubility in data set [2] was 138 µM (≈ 52.3 µg/mL).
